# From PubChem BioAssay (NCI)
#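 Assay format: 96-well plates, 48-hour exposure. GI50 marks 50% less growth. TGI is the concentration that stops growth completely.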
# What was measured:
# Assay in all cases: growth of human tumour cells (NCI), 48 h
# OVCAR-3 ovarian = test system: OVCAR-3 ovarian
# RXF 393 renal = test system: RXF 393 renal
# HL-60(TB) leukemia = test system: HL-60(TB) leukemia
# PC-3 prostate = test system: PC-3 prostate
# HS 578T breast = test system: HS 578T breast
# M14 melanoma = test system: M14 melanoma
# 786-0 renal = test system: 786-0 renal
# SF-539 CNS = test system: SF-539 CNS
# COLO 205 colon = test system: COLO 205 colon
# HOP-92 NSCLC = test system: HOP-92 NSCLC
# SN12C renal = test system: SN12C renal
# HCT-116 colon = test system: HCT-116 colon
# CAKI-1 renal = test system: CAKI-1 renal
# SK-MEL-5 melanoma = test system: SK-MEL-5 melanoma
# LOX IMVI melanoma = test system: LOX IMVI melanoma
# SF-268 CNS = test system: SF-268 CNS
# SR leukemia = test system: SR leukemia
# SNB-19 CNS = test system: SNB-19 CNS
# CCRF-CEM leukemia = test system: CCRF-CEM leukemia
# HCT-15 colon = test system: HCT-15 colon
# HT29 colon = test system: HT29 colon
# OVCAR-5 ovarian = test system: OVCAR-5 ovarian
# T-47D breast = test system: T-47D breast
# SW-620 colon = test system: SW-620 colon
# NCI/ADR-RES ovarian = test system: NCI/ADR-RES ovarian
# A549 NSCLC = test system: A549 NSCLC
# IGROV1 ovarian = test system: IGROV1 ovarian
# UACC-257 melanoma = test system: UACC-257 melanoma
# MDA-MB-435 = test system: MDA-MB-435
# HCC-2998 colon = test system: HCC-2998 colon
# MOLT-4 leukemia = test system: MOLT-4 leukemia
# SF-295 CNS = test system: SF-295 CNS
# RPMI-8226 leukemia = test system: RPMI-8226 leukemia
# U251 CNS = test system: U251 CNS
# KM12 colon = test system: KM12 colon
# MALME-3M melanoma = test system: MALME-3M melanoma
# SK-MEL-28 melanoma = test system: SK-MEL-28 melanoma
# NCI-H23 lung = test system: NCI-H23 lung
# A498 renal = test system: A498 renal
# NCI-H522 lung = test system: NCI-H522 lung
# BT-549 breast = test system: BT-549 breast
# MDA-MB-468 breast = test system: MDA-MB-468 breast
# OVCAR-4 ovarian = test system: OVCAR-4 ovarian
# TK-10 renal = test system: TK-10 renal
# NCI-H460 lung = test system: NCI-H460 lung
# OVCAR-8 ovarian = test system: OVCAR-8 ovarian
# MCF7 breast = test system: MCF7 breast
# NCI-H226 lung = test system: NCI-H226 lung
# K-562 leukemia = test system: K-562 leukemia
# DU-145 prostate = test system: DU-145 prostate
# HOP-62 NSCLC = test system: HOP-62 NSCLC
# EKVX NSCLC = test system: EKVX NSCLC
# UACC-62 melanoma = test system: UACC-62 melanoma
# SK-OV-3 ovarian = test system: SK-OV-3 ovarian
# ACHN renal = test system: ACHN renal
compound,measurement,setting,value
CC(C)C[C@H](NC(=O)CNC(=O)C[C@H]1O[C@@H]2OC3(C)CC[C@H]4[C@H](C)CC[C@@H]([C@H]1C)[C@@]24OO3)B(O)O,GI50,OVCAR-3 ovarian,583 nM
same,TGI,OVCAR-3 ovarian,3120 nM
same,GI50,RXF 393 renal,162 nM
same,TGI,RXF 393 renal,556 nM
same,GI50,HL-60(TB) leukemia,210 nM
same,TGI,HL-60(TB) leukemia,4620 nM
same,GI50,PC-3 prostate,2520 nM
same,TGI,PC-3 prostate,57800 nM
same,GI50,HS 578T breast,1910 nM
same,TGI,HS 578T breast,> 65000 nM
same,GI50,M14 melanoma,1240 nM
same,TGI,M14 melanoma,3460 nM
same,GI50,786-0 renal,3320 nM
same,TGI,786-0 renal,> 65000 nM
same,GI50,SF-539 CNS,370 nM
same,TGI,SF-539 CNS,1540 nM
same,GI50,COLO 205 colon,2640 nM
same,TGI,COLO 205 colon,13800 nM
same,GI50,HOP-92 NSCLC,1500 nM
same,TGI,HOP-92 NSCLC,4900 nM
same,GI50,SN12C renal,1920 nM
same,TGI,SN12C renal,7920 nM
same,GI50,HCT-116 colon,437 nM
same,TGI,HCT-116 colon,1750 nM
same,GI50,CAKI-1 renal,24300 nM
same,TGI,CAKI-1 renal,> 65000 nM
same,GI50,SK-MEL-5 melanoma,1090 nM
same,TGI,SK-MEL-5 melanoma,2270 nM
same,GI50,LOX IMVI melanoma,753 nM
same,TGI,LOX IMVI melanoma,1680 nM
same,GI50,SF-268 CNS,2390 nM
same,TGI,SF-268 CNS,> 65000 nM
same,GI50,SR leukemia,188 nM
same,TGI,SR leukemia,805 nM
same,GI50,SNB-19 CNS,3440 nM
same,TGI,SNB-19 CNS,> 65000 nM
same,GI50,CCRF-CEM leukemia,251 nM
same,TGI,CCRF-CEM leukemia,2740 nM
same,GI50,HCT-15 colon,5520 nM
same,TGI,HCT-15 colon,16500 nM
same,GI50,HT29 colon,983 nM
same,TGI,HT29 colon,3460 nM
same,GI50,OVCAR-5 ovarian,1680 nM
same,TGI,OVCAR-5 ovarian,10300 nM
same,GI50,T-47D breast,771 nM
same,TGI,T-47D breast,2930 nM
same,GI50,SW-620 colon,437 nM
same,TGI,SW-620 colon,8240 nM
same,GI50,NCI/ADR-RES ovarian,55300 nM
same,TGI,NCI/ADR-RES ovarian,> 65000 nM
same,GI50,A549 NSCLC,3030 nM
same,TGI,A549 NSCLC,> 65000 nM
same,GI50,IGROV1 ovarian,2690 nM
same,TGI,IGROV1 ovarian,13800 nM
same,GI50,UACC-257 melanoma,818 nM
same,TGI,UACC-257 melanoma,2140 nM
same,GI50,MDA-MB-435,275 nM
same,TGI,MDA-MB-435,1690 nM
same,GI50,HCC-2998 colon,1170 nM
same,TGI,HCC-2998 colon,2210 nM
same,GI50,MOLT-4 leukemia,267 nM
same,TGI,MOLT-4 leukemia,5190 nM
same,GI50,SF-295 CNS,2170 nM
same,TGI,SF-295 CNS,9460 nM
same,GI50,RPMI-8226 leukemia,184 nM
same,TGI,RPMI-8226 leukemia,604 nM
same,GI50,U251 CNS,2390 nM
same,TGI,U251 CNS,14500 nM
same,GI50,KM12 colon,1670 nM
same,TGI,KM12 colon,4450 nM
same,GI50,MALME-3M melanoma,719 nM
same,TGI,MALME-3M melanoma,2790 nM
same,GI50,SK-MEL-28 melanoma,716 nM
same,TGI,SK-MEL-28 melanoma,3370 nM
same,GI50,NCI-H23 lung,1680 nM
same,TGI,NCI-H23 lung,8450 nM
same,GI50,A498 renal,5480 nM
same,TGI,A498 renal,> 65000 nM
same,GI50,NCI-H522 lung,531 nM
same,TGI,NCI-H522 lung,1670 nM
same,GI50,BT-549 breast,261 nM
same,TGI,BT-549 breast,1220 nM
same,GI50,MDA-MB-468 breast,341 nM
same,TGI,MDA-MB-468 breast,1560 nM
same,GI50,OVCAR-4 ovarian,3040 nM
same,TGI,OVCAR-4 ovarian,> 65000 nM
same,GI50,TK-10 renal,2340 nM
same,TGI,TK-10 renal,51400 nM
same,GI50,NCI-H460 lung,3540 nM
same,TGI,NCI-H460 lung,18900 nM
same,GI50,OVCAR-8 ovarian,1990 nM
same,TGI,OVCAR-8 ovarian,8040 nM
same,GI50,MCF7 breast,349 nM
same,TGI,MCF7 breast,> 65000 nM
same,GI50,NCI-H226 lung,455 nM
same,TGI,NCI-H226 lung,1500 nM
same,GI50,K-562 leukemia,1920 nM
same,TGI,K-562 leukemia,> 65000 nM
same,GI50,DU-145 prostate,7320 nM
same,TGI,DU-145 prostate,> 65000 nM
same,GI50,HOP-62 NSCLC,3050 nM
same,TGI,HOP-62 NSCLC,14700 nM
same,GI50,EKVX NSCLC,5950 nM
same,TGI,EKVX NSCLC,> 65000 nM
same,GI50,UACC-62 melanoma,958 nM
same,TGI,UACC-62 melanoma,2210 nM
same,GI50,SK-OV-3 ovarian,4130 nM
same,TGI,SK-OV-3 ovarian,38200 nM
same,GI50,ACHN renal,4750 nM
same,TGI,ACHN renal,> 65000 nM
